According to patent US7592326B2, “Method for stimulating the immune, inflammatory or neuroprotective response” (priority 2004, dated 2009):
Marks after values point to notes of the source that are not given here.

What was measured:
[1] = system: immature DCs (iDC) and mature DCs (mDC); assay: Cytokine production by dendritic cells (sandwich ELISA of supernatants); type: cell-based, human; conditions: 24 h
Experimental: Analysis of supernatant cytokine content was performed both on treated (c-di-GMP) or untreated saline control (NaCl) immature DCs (iDC) and mature DCs (mDC). Culture supernatants were collected after 24 h treatment and IL-1β, IL-6, IL-10, IL-12, and TNF- α contents were measured using a sandwich ELISA according to the manufacturer's instructions.

S. aureus Newbould 305 = assay: Mouse model of S. aureus-induced mastitis, prophylactic pre-treatment; type: in vivo; conditions: for reduction of the mean bacterial CFU in tissues compared to untreated control: lactating CD-1 mice, 10 h infection
Experimental: The well-characterized mouse model of S. aureus-induced mastitis (see Brouillette et al., 2005 for review) was used to evaluate the capacity of c-di-GMP to act as a prophylactic agent. S. aureus is a Gram-positive bacterial pathogen. The protocol used here is similar to that described in a previous study (Brouillette et al., 2005), except that the c-di-GMP molecule was administered before infection of mammary glands, instead of after, in order to evaluate its prophylactic capacity. […] For inoculation, 100 cfu of S. aureus Newbould 305 (ATCC 29740) were injected in each gland and the colonization allowed for 10 h. Raw bacterial cfu counts obtained after plating serial logarithmic dilutions of mammary gland homogenates were transformed in base-10 logarithm values. The experiment was repeated and data combined for a total of 9 mice (18 glands) per group. Since values passed the normality test, bacterial counts were analyzed for statistical significance using the One-way analysis of variance test combined with the Tukey post test (GraphPad Instat, version 3.06). The institutional ethics committee on animal experimentation of the Faculté des sciences of Université de Sherbrooke approved these experiments and were carried out following the guidelines of the Canadian Council on Animal Care.

p38 MAPK = assay: Western blot signaling in human macrophages: p38 MAPK; type: cell-based; conditions: human M-CSF-induced monocyte-derived macrophages
Experimental: Preparation of macrophages was performed as previously described (Akagawa et al., 1996). Briefly, fully differentiated macrophages from human PBMC were isolated from leukapheresis preparations obtained by the Blood Bank, Clinical Center, National Institutes of Health, Bethesda, Md. The leukocyte-rich preparation was overlaid on Accu-prep in 50 ml tubes and the tubes were centrifuged at 800 × g for 20 min at room temperature. PBMC fractions were collected, washed once with PBS at room temperature and twice with complete medium at 4° C. and resuspended in the same medium. Monocytes were further purified by using iso-osmotic Percoll gradient (Amersham Biosciences). At this stage, the purity of monocytes was higher than 90%. One and half million cells were placed on a 12-well plate in 1.5 ml RPMI1640 containing 50 ng/ml human M-CSF. On day 4, 1 ml of the medium was replaced with 1 ml of fresh medium containing 50 ng human M-CSF. On day 7, non-adherent cells were washed out and adherent cells were used as macrophages.
Western blot analysis of macrophages was performed as previously described (Matsuyama et al., 2003). Briefly, prepared macrophages were starved in RPMI 1640 without FCS for 10 h. […] Proteins were analyzed on 12% polyacrylamide gels by SDS-PAGE and transferred electrophoretically to nitrocellulose membranes at 150 mA for 1 h in a semi-dry system. […]

lung leukocytes = assay: Lung leukocyte accumulation in Klebsiella-infected mice (lung digest, flow cytometry); type: in vivo, Balb/c mice
[2] = system: PR8 followed by D39 or NCH57; assay: Secondary bacterial pneumonia following influenza infection in mice (proposed); type: in vivo; conditions: 200 nmol/animal 24- and 48 hours prior to bacterial challenge
Experimental: To show the effect of c-di-GMP secondary bacterial pneumonia following influenza infection, groups of 6 mice are infected with 100 TCID50 of PR8 and challenged 7 days later with either 1000 CFU of D39, or 1×10^7 CFU of NCH57 and followed twice daily for weight loss, development of secondary bacterial infections by bioluminescent imaging, and mortality. One group of mice is treated with c-di-GMP 24- and 48 hours (e.g., orally, intransal, i.p, s.q. i.m.) prior to bacterial challenge with 200 nmol/animal.

[3] = system: Primary hippocampal cells; assay: Staurosporine-induced cell death in primary hippocampal cultures (CellTiter 96 AQueous Assay); type: cell-based
Experimental: To assess the role of cyclic dinucleotides in modulating the neurological response, i.e., prevent cell death induced by staurosporine (STS) in primary hippocampal nerve cells, the effects of c-di-GMP on hippocampal cells was analyzed. Primary hippocampal cells were prepared according to previously described methods (Pereira et al., 1993). Briefly, the hippocampi were dissected from the brain of 18-day-old fetal rats. Following enzymatic and mechanical dissociation, cells were plated at a density of 100,000 cells/well in 96-well plates pre-coated with matrigel. At the 7th day after plating, cultures were subjected to one of the following treatments: (i) vehicle (24 h), (ii) STS (100 nM, 22 h), (iii) c-di-GMP (24 h), (iv) c-di-GMP (2 h) followed by c-di-GMP -plus-STS (22 h), (v) c-di-GMP -plus-STS (24 h), or (vi) STS (2 h) followed by c-di-GMP -plus-STS (22 h). At the end of the treatments, cell viability was analyzed using CellTiter 96® AQueous Assay (Promega). The assay involves the spectrophotometric measurement (at 490 nm) of the mitochondrial conversion of a tetrazolium dye into a colorful product. The absorbance of the assay correlates with the number of metabolically active cells.

[4] = system: human colon carcinoma cells; conditions: synthetic c-di-GMP; cited from earlier work
[5] = 200 nmol intramammary 12 h and 6 h prior to challenge, P<0.001

## Nc1nc(=O)c2ncn([C@@H]3OC4COP(=O)(O)O[C@H]5[C@@H](O)[C@H](n6cnc7c(=O)nc(N)[nH]c76)O[C@@H]5COP(=O)(O)OC4C3O)c2[nH]1 (some centres unmarked) [c-di-GMP, Bis(3′→5′)-cyclic diguanylic acid]
[1]; DCs
  IL-10 expression: no major effect
[1]; iDCs, 5 μM, FIG. 3A
  production of TNF-α: dramatic increase
[1]; immature DCs
  IL-12 secretion: undetectable
[1]; mDCs (LPS-treated), 50 μM
  IL-12 production: dramatic increase
[1]; mDCs (LPS-treated), 100 μM, FIG. 3B
  IL-6 production: increase
[1]; mDCs (LPS-treated), FIG. 3B
  IL-1β production: major increase
S. aureus Newbould 305; 50 nmol intramammary 12 h and 6 h prior to challenge, P<0.05
  reduction of the mean bacterial CFU in tissues compared to untreated control: 1.5 log
S. aureus Newbould 305; [5]
  reduction in CFUs in tissues: 10,000 fold
  reduction of the mean bacterial CFU in tissues compared to untreated control: 3.8 log
p38 MAPK
  phosphorylation of p38 MAPK: no phosphorylation
Lung leukocytes; 48 hr post infection, p<0.01
  increase in the number of neutrophils in the lungs of infected mice vs control-pretreated: 3 fold
  total number of lung leukocytes vs control-pretreated: significant increase
Lung leukocytes; i.n. pretreatment 48 and 24 hr prior, lung digests 48 hrs after K. pneumoniae (kp), uninfected 2.7 × 10^7
  Total number lung cells: 4.67 × 10^7*
Lung leukocytes; i.n., data not shown
  trafficking of myeloid or plasmacytoid DC to the lung in response to bacterial challenge: did not alter
Lung leukocytes; lung digests 48 hrs after kp, uninfected 0.33 × 10^5
  αβTcr^+, CD69^+: 3.7 × 10^5*
Lung leukocytes; lung digests 48 hrs after kp, uninfected 0.78 × 10^5
  DX5^+, CD69^+: 5.98 × 10^5**
Lung leukocytes; lung digests 48 hrs after kp, uninfected 0.8 × 10^6
  PMN: 22 × 10^6**
Lung leukocytes; lung digests 48 hrs after kp, uninfected 1.3 × 10^6
  DX5^+ (NK): 3.8 × 10^6
Lung leukocytes; lung digests 48 hrs after kp, uninfected 1.6 × 10^5
  DX5^+, αβγδTcr^+(NK T^+): 6.8 × 10^5*
Lung leukocytes; lung digests 48 hrs after kp, uninfected 2.3 × 10^7
  Mono/Macrophage: 1.9 × 10^7
Lung leukocytes; lung digests 48 hrs after kp, uninfected 2.6 × 10^6
  αβTcr^+: 5.5 × 10^6**
[2]
  survival: greater survival
[3]; 0.1-10 μM applied together with or after STS
  number of metabolic active cells vs STS alone: on average higher
[3]; 0.1-10 μM, 2 h before STS 100 nM, FIG. 5
  STS-induced cell death, pre-treatment: prevented the STS-induced cell death
[3]; 24 h
  toxicity to primary hippocampal cultures: not toxic
[4]
  basal and growth factor induced proliferation of human colon carcinoma cells: inhibits
